Series [1] is described as follows: Plasma analysis and pharmacokinetics in Gottingen minipigs after intranasal administration (Example 4). The note with it: for bioavailability: Bioavailability (0-tlast), intranasal, minipig No. 2; for Cmax: Cmax of Remimazolam.
The conditions of series [2]: study Y08AG004, micropigs, cited from earlier work.
Series [3] is described as follows: Solubility of remimazolam in inhalation vehicle (Example 2). The settings on record: concentrations >25 mg/mL.
Series [4] has as its system male rats. Briefly: Tolerability in rats: mortality, body weight, Irwin observations, body temperature, pupil size, gross pathology (Example 1).
The test system of series [5] is male rats. Briefly: Clinical observations in rats after intranasal or IV remimazolam (Example 1). The note with it: intranasal dosing. In kind it is in vivo, rat.
The subject of series [6] is Gottingen minipigs. Briefly: Sedative effect score in Gottingen minipigs after single intranasal administration (Example 4). It counts as in vivo, minipig.
Series [7] relates to Gottingen minipigs. Briefly: Systemic and local tolerability (clinical signs, rhinoscopy, NOAEL) in Gottingen minipigs, single intranasal administration (Example 4). The note with it: minipigs.
Assay in series [8]: as above
The settings on record: female, Gottingen, minipig, in vivo, inhaled or intranasal, 25 mg/animal.

The nature of series [9]: Plasma levels of Remimazolam and its main metabolite CNS7054 in rats (Example 1).
For series [10] the following is noted: study 32236, female minipigs, intravenous infusion 120 mg/kg; cited from earlier work.
Where [11] appears, read: minipig animal no. 2, intranasal 25 mg.
Where [12] appears, read: intranasal 25 mg Remimazolam/animal.

The structures appear in SMILES notation. Like-named read-outs stand apart in the source and are kept apart here.

Consider `Cc1cnc2n1-c1ccc(Br)cc1C(c1ccccn1)=N[C@H]2CCC(=O)O` [CNS7054], for which the “tmax of the metabolite (CNS7054)” value in series [1] (minipig animal no. 2, intranasal 25 mg Remimazolam) is listed as 15 min; in series [1] (minipig animal nos. 1 and 3, intranasal 25 mg Remimazolam), 60 min. The “Plasma level of metabolite CNS7054, GLP-validated method” value in series [1] (minipigs, intranasal 25 mg Remimazolam, below LLOQ) is less than 100 ng/mL.
The NOAEL is the highest tested level that showed no adverse finding. As a reminder, the AUC(0-t) is the area under the concentration-time curve up to a stated or last time point. Read a low AUC(0-t) as low exposure. What is called bioavailability is the share of a dose that reaches the circulation, judged against a reference dose that is usually intravenous. Low values mean little systemic uptake, high ones much systemic uptake. For orientation: Tmax means the time at which the peak concentration occurs. The term Cmax denotes the maximum level reached in the sampled fluid or tissue. In the case of `COC(=O)CC[C@@H]1N=C(c2ccccn2)c2cc(Br)ccc2-n2c(C)cnc21` [Remimazolam, methyl 3-[(4S)-8-bromo-1-methyl-6-(pyridin-2-yl)-4H-imidazo[1,2-a][1,4]benzodiazepin-4-yl]propanoate], the “AUC0-last (data are for 0→∞)” value in series [2] (intravenous bolus 1 mg/kg) is on record as 293.3^2 ng*h/ml; in series [2] (intravenous infusion 2.4 mg/kg) it was 676.7^2 ng*h/ml. In addition, the “AUC0-last/Dose (data are for 0→∞)” value in series [2] (intravenous bolus 1 mg/kg) was 293.3^2 ng*h*kg/ml/mg; in series [2] (intravenous infusion 2.4 mg/kg) it was 282.9^2 ng*h*kg/ml/mg. For the same molecule, the “Solubility in a reasonable inhalation vehicle” value in [3] is listed as “could not be tested due to lack of solubility in a reasonable vehicle”. Further, the Gross pathology entry in the series with male rats [4] (male rats, Part B necropsy) is recorded as “No test item-related gross findings were noted”. Further, the “Tolerability of intranasal administration” value with male rats [4] (rats) is recorded as “well tolerated”. Further, in the series with male rats [5], the “Time clinical observations were present following dosing” value is “up to 15 min”. Further, the “Sedative effects lasting up to” value in the series on Gottingen minipigs [6] (setting [11]) is given as “up to 30 minutes”. Moreover, the “Start of sedative effects after administration” value in the series on Gottingen minipigs [6] (setting [11]) was 5 min. In the series on Gottingen minipigs [6] (setting [11]), the “Time of maximum sedative effect” value was 10 minutes p.a. Further, the Sedative effect result in the series with Gottingen minipigs [6] (minipig animal nos. 1 and 3, intranasal 25 mg, scores of zero recorded) is “not affected”. Besides, the “NOAEL for local tolerability (nasal mucosa)” value in the series on Gottingen minipigs [7] (dry drug product powder into one nostril) was not below 25 mg/animal. The Body weight entry in the series on Gottingen minipigs [7] (setting [12]) was “No test item-related influence on the body weight was observed”. In addition, the Clinical signs entry in the series on Gottingen minipigs [7] (setting [12]) was “No test item-related changes in behavior (except for sedation, see below) or external appearance were observed”. The “Food and drinking water consumption” value in the series on Gottingen minipigs [7] (setting [12]) is listed as “No test item-related influence was noted”. In the series on Gottingen minipigs [7] (setting [12]), the Mortality result is “None of the animals died”. The “Rhinoscopy: changes of the nasal mucosa (erythema, eschar or oedema formation)” value in the series on Gottingen minipigs [7] (nasal 25 mg Remimazolam/animal) is given as “No test item-related changes of the nasal mucosa”. This molecule came in with an NOAEL in series [8] not below 1.25 mg/kg. The “Systemic exposure following intranasal administration” value in [9] is on record as “systemically exposed”. Further, the exposure AUC(0-t) in [1] (female, Gottingen, minipig, plasma, inhaled or intranasal, 1.25 mg/kg, AUC0-last, present study (33659), minipig No. 2 (bw 20 kg), intranasal 1.25 mg/kg) is 19.9 ng·h/mL; in series [1] (female, Gottingen, minipig, plasma, inhaled or intranasal, 25 mg, AUC0->last of Remimazolam, minipig animal no. 2, intranasal 25 mg), approximately 20 ng·h/mL; in series [1] (female, Gottingen, minipig, plasma, inhaled or intranasal, 25 mg, AUC0->last of Remimazolam, minipig animal no. 3, intranasal 25 mg) it was 7 ng·h/mL. In addition, the bioavailability in [1] (female, Gottingen, minipig, plasma, inhaled or intranasal, 1.25 mg/kg, reference Y08AG004 bolus (micropigs)) amounted to 5.43%; in [1] (female, Gottingen, minipig, plasma, inhaled or intranasal, 1.25 mg/kg, reference Y08AG004 infusion (micropigs)), 5.63%; in [1] (female, Gottingen, minipig, plasma, other: intranasal, 1.25 mg/kg, reference study 32236 (IV infusion, minipigs)) it was 10.5%; in series [1] (female, Gottingen, minipig, plasma, other: intranasal, 25 mg/animal, reference study 32236 (IV infusion, minipigs)), 10%. Moreover, the Tmax in series [1] (female, Gottingen, minipig, plasma, inhaled or intranasal, 25 mg) is 15 min. Moreover, the Cmax in series [1] (female, Gottingen, minipig, plasma, inhaled or intranasal, 25 mg, minipig animal no. 1, intranasal 25 mg, extrapolated below LLOQ) is 17.4 ng/mL; in series [1] (female, Gottingen, minipig, plasma, inhaled or intranasal, 25 mg, minipig animal no. 2, intranasal 25 mg, within GLP-validated range), 50.4 ng/mL; in [1] (female, Gottingen, minipig, plasma, inhaled or intranasal, 25 mg, minipig animal no. 3, intranasal 25 mg, extrapolated below LLOQ) it was not above 8.6 ng/mL. In series [1] (female, Gottingen, minipig, plasma, other: intranasal, 25 mg/animal), this molecule showed a concentration at 0.25 h of 50.4 ng/mL. For the same molecule, in series [1] (minipigs, intranasal 25 mg, all samples except animal no. 2 at 0.25 hours p.a., below LLOQ), the “Plasma level of Remimazolam (CNS7056), GLP-validated method” value was less than 20 ng/mL. Moreover, the AUC0-last/Dose is 15.94^1 ng*h*kg/ml/mg in [1] (present study (33659), minipig No. 2, intranasal 1.25 mg/kg) and 151.79 ng·kg·h/mL/mg in [10]. Besides, the AUC0-last in series [10] is 18215.23 ng·h/mL.

The record behind these values is patent US20260027128A1 (priority 2016, published 2026).
